Source: US11779602B2, “Methods of use for CAR T cells” (ENDOCYTE, INC., priority 2018, dated 2023)

What was measured:
MDA-MB-231 tumors = assay: CAR-T/EC17 therapy, fixed dose and dose de-escalation, in mice bearing MDA-MB-231 tumors; type: in vivo; conditions: 4M5.3-CAR-T 30 million cells, EC17 de-escalation
Description: The effect of EC17 dose de-escalation was investigated on the anti-tumor activity and the toxicity (body weight changes) of CAR-T therapy. Two different anti-fluorescein scFv were used for the CAR constructions (FIG. 1). The first construct of CAR contains the following domains: antiFL(FITC-E2)scFv-IgG4 hinge (CH2 (L235D, N297Q)-CH3)-CD28 TM-4-1BB-CD3z-T2A-EGFRt. The second construct of CAR contains the following domains: antiFL(FITC-4M5.3)scFv-IgG4 hinge (CH2 (L235D, N297Q)-CH3)-CD28 TM-4-1BB-CD3z-T2A-EGFRt. The nucleic acid sequence and amino acid sequence of the CAR of each construct are shown as SEQ ID NOS:1 to 4. Human T cells were isolated, activated and transduced with a lentiviral vector carrying the appropriate CAR gene. CD4+ T cells with the CAR-modification and CD8+ T cells with the CAR-modification were isolated and cultured separately in vitro for about 7 days. CD4+ CAR-T cells and CD8+ CAR-T cells were mixed at a 1:1 ratio before i.v. administration for animal studies.
The second construct 4M5.3-CAR (antiFL(FITC-4M5.3) scFv-IgG4 hinge (CH2 (L235D, N297Q)-CH3)-CD28 TM-4-1BB-CD3z-T2A-EGFRt) was also evaluated. Mice bearing MDA-MB-231 tumors (150-250 mm^3) were used for in vivo studies to evaluate 4M5.3-CAR-T cells. […]

[1] = test system: FR+ tumor cell targets (MDA-MB-231, THP1-FRβ, HOS-FRα); assay: CAR-T cell activation markers (CD69, CD137, PD1) in co-culture with EC17-preloaded targets; type: cell-based, human; conditions: E/T 1:1, 24 hours
Protocol: To study CAR-T cell activation in the presence of FR+ tumor cell targets (FIGS. 53A-D), co-culture experiments were initially carried out with MDA-MB-231, THP1-FRβ and HOS-FRα. […] After 24 hours of co-culture, the surface expression of T cell activation markers CD69, CD137 (4-1BB), and PD1 were analyzed by flow cytometry. For T cell exhaustion studies (FIGS. 54A-C), FR+ (KB, MDA-MB-231, HOS-FRα^fLuc, THP1-FRβ) and FR-negative (HOS-143b^fLuc, THP1-FG12) tumor cell lines were used as targets. Here, target cells were incubated on day 0 without or with 0.1 and 10 nM of EC17 for 30 min at 37° C. and the status of EC17 “pre-loading” was assessed by counterstaining cell-surface EC17 with an anti-FITC antibody (FIG. 61A). Three days later, the surface expression of PD1, LAG3, and TIM3 inhibitor receptors on co-cultured CAR-T cells were analyzed and higher frequencies of double- and triple-positive cells were considered approaching an exhausted phenotype.
To examine antigen-dependent CAR-T cell activation, MDA-MB-231, THP1-FRβ and HOS-FRα cells were preloaded with 100 nM EC17 over 30 min. […] After 24 hours of co-culture, we measured the surface expression of T cell activation markers CD69, CD137 (4-1BB) and PD1 (FIGS. 53A-D). […] Three days later, co-cultured CAR-T cells were measured for upregulation and co-expression of T cell activation/exhaustion markers PD1, LAGS and TIM3. […]

NC1=NC2N=CC(CNc3ccc(C(=O)N[C@@H](CCC(=O)NCCNC(=S)Nc4ccc(-c5c6ccc(=O)cc-6oc6cc(O)ccc56)c(C(=O)O)c4)C(=O)O)cc3)=NC2C(=O)N1 (stereo partly drawn) [EC17, FA-(γ)-ethylenediamine-FITC]
EC17 dose dependence of anti-tumor activity and body weight loss (MDA-MB-231 tumors): dose dependent anti-tumor activity and body weight loss
CAR-T cell activation (CD69, CD137, PD1) ([1]; MDA-MB-231 and HOS-FRα preloaded with 100 nM EC17 30 min): strong activators
CAR-T cell activation (CD69, CD137, PD1) ([1]; THP1-FRβ preloaded with 100 nM EC17 30 min): did trigger CAR-T cell activation, but at lower levels
